Experiment [1] concerns S. epidermidis. The experiment can be described thus: MIC and MBC, broth microdilution (Example 3). Format: cell-based, Staphylococcus epidermidis. The note with it: S. epidermidis strains. From the text:
This study used clinically relevant strains isolated from patients with prosthetic joint infections at the Microbiology Laboratory of the IRCCS Galeazzi Orthopaedic institute (Italy). In particular, the following were selected: strains of methicillin-resistant Staphylococcus epidermidis, of methicillin-resistant Staphylococcus aureus and of Pseudomonas aeruginosa. These strains were identified beforehand by means of biochemical assays (VITEK® 2 Compact, bioMérieux, Marcy l'Etoile, France) and stored at −80° C. prior to the analysis. Before beginning the study, all strains were screened to assess their ability to produce biofilms, according to the spectrophotometric assay described by Christensen et al. (J Clin Microbiol 1985; 22: 996-1006).
The bacteriostatic and bactericidal activity of vitamin E acetate and vitamin E phosphate against the above-mentioned bacterial strains was assessed by measuring the minimum inhibitory concentration (MIC) and the minimum bactericidal concentration (MBC). MIC, defined as the lowest concentration capable of inhibiting bacterial growth, was determined using the broth microdilution method according to EUCAST guidelines (http://www.eucast.org/clinical_breakpoints/).
(§1) In short, a suspension in Brain Heart Infusion Broth (BHI; Biomérieux, Marci l'Etoile, France) was prepared for each bacterial strain, with an optical density of 0.5 McFarland (1.5×10^8 CFU/ml). The P. acnes broth was supplemented with 5% defibrinated sheep blood (Liofilchem, Roseto degli Abruzzi, Italy). After a concentration of 10^5 UFC/ml was obtained using appropriate dilutions, each suspension was inoculated in a 96-well microtitre plate containing a two-fold serial dilution of vitamin E acetate (VitE-Ac) and vitamin E phosphate. The controls were performed by inoculating bacterial suspensions in BHI alone. […] After incubation at adequate conditions, MBC was read as the lowest concentration capable of killing 99.9% of the initial inoculum.
(In general: Dilution methods test growth across graded concentrations, often in twofold steps.)

Experiment [2] deals with S. epidermidis. The experiment can be described thus: Anti-adhesion activity on coated titanium disks, CFU count (Example 3). The class given is cell-based, Staphylococcus epidermidis. The following applies: 5 mg/cm^2 coating, 30, 60 and 120 minutes. How it is done:
(§2) Sterile disks of sandblasted titanium with a diameter of 25 mm and a thickness of 5 mm (Adler Ortho, Cormano, Italy) were used as the substrate for the formation of biofilms. The disks were coated with sub-inhibitory concentrations of vitamin E acetate (5 mg/cm^2) or vitamin E phosphate (5 mg/cm^2). The concentrations were selected based on the MIC results. Uncoated disks were used as negative controls. The anti-adhesion activity of vitamin E was assessed against a representative strain for each species. An overnight bacteria culture was resuspended in Brain Heart Infusion Broth (BHI; Biomérieux) at a density of 1.0×10^7 CFU/ml for each strain, and 400 microliters of microbial suspension were inoculated on coated and uncoated disks. The test was performed in triplicate for each strain. After 30, 60 and 120 minutes of incubation, the disks were washed twice with a sterile saline solution to eliminate non-adherent bacteria. The disks were then immersed in 5 ml of a 0.1 w/v % dithiothreitol solution (DTT, Sigma-Aldrich, Milan, Italy) and mechanically stirred for 15 minutes at room temperature. Suitable dilutions of the fluids obtained were inoculated on Tryptic Soy Agar (TSA, Merck) and incubated at 37° C. in an aerobic atmosphere for 24 hours for the CFU count.

For experiment [3], the system named is P. acnes. The experiment can be described thus: MIC and MBC, broth microdilution (Example 3). The class given is cell-based. How it is done: as §1, with “MIC, defined as the lowest concentration capable of inhibiting bacterial growth, was determined using the broth microdilution method according to EUCAST guidelines (http://www.eucast.org/clinical_breakpoints/). In short,” for “In short,”, “Infusion Broth ([…], France) was” for “Infusion Broth (BHI; Biomérieux, Marci l'Etoile, France) was”, “sheep blood ([…] Abruzzi, Italy).” for “sheep blood (Liofilchem, Roseto degli Abruzzi, Italy).”

In experiment [4] the test system is Pseudomonas aeruginosa. Nature of the experiment: Biofilm on coated titanium disks, CFU count (Example 2). Format: cell-based. The note with it: P. aeruginosa, vitamin E acetate 5 mg/cm^2, methylene blue 20 μg/cm^2. From the text: (§3) This study used clinically relevant strains isolated from patients with prosthetic joint infections at the Microbiology Laboratory of the IRCCS Galeazzi Orthopaedic Institute (Italy). In particular, the following were selected: a strain of methicillin-resistant Staphylococcus epidermidis, a strain of methicillin-resistant Staphylococcus aureus and a strain of Pseudomonas aeruginosa. These strains were identified beforehand by means of biochemical assays (VITEK® 2 Compact, bioMérieux, Marcy l'Etoile, France) and stored at −80° C. prior to the analysis. Before beginning the study, all strains underwent testing to assess their ability to produce biofilms according to the spectrophotometric assay described by Christensen et al. (J Clin Microbiol 1985; 22: 996-1006).
(§4) Sterile disks of sandblasted titanium with a diameter of 25 mm and a thickness of 5 mm (Adler Ortho, Cormano, Italy) were used as the substrate for the formation of biofilms. The disks were coated with sub-inhibitory concentrations of vitamin E acetate (5 mg/cm^2) or vitamin E acetate with the addition of methylene blue (20 μg/cm^2). […] Uncoated disks were used as negative controls. Subsequently, an overnight bacteria culture was resuspended in Brain Heart Infusion Broth (BHI; Biomérieux) at a density of 1.5×10^8 CFU/ml for each strain, and 200 microliters of microbial suspension were inoculated in sterile polystyrene plates with 6 wells containing coated and uncoated disks and 4.8 ml of BHI. The plates were incubated at 37° C. in an aerobic atmosphere for 24 and 48 hours. The test was performed in triplicate for each strain.
(§5) Upon completion of the biofilm incubation time, the disks were washed twice with a sterile saline solution to eliminate non-adherent bacteria. The disks were then immersed in 5 ml of a 0.1 w/v % dithiothreitol solution (DTT, Sigma-Aldrich, Milan, Italy) and mechanically stirred for 15 minutes at room temperature. Suitable dilutions of the fluids obtained were inoculated on Tryptic Soy Agar (TSA, Merck) and incubated at 37° C. in an aerobic atmosphere for 24 hours for the CFU count.

Experiment [5] concerns methicillin-resistant Staphylococcus aureus. The description is as above. The class given is cell-based. The note with it: S. aureus, vitamin E acetate 5 mg/cm^2, methylene blue 20 μg/cm^2.
Source text: as §3, §4, §5

Experiment [6] relates to methicillin-resistant Staphylococcus epidermidis. The description is as above. The following applies: S. epidermidis, vitamin E acetate 5 mg/cm^2, methylene blue 20 μg/cm^2. The class given is cell-based.
Source text: as §3, §4, §5

For experiment [7], the system named is P. aeruginosa. Nature of the experiment: Anti-adhesion activity on coated titanium disks, CFU count (Example 3). The class given is cell-based, Pseudomonas aeruginosa. The note with it: 5 mg/cm^2 coating, 30, 60 and 120 minutes. The procedure: as §2
For experiment [8], the system named is S. aureus. Described as above. The class given is cell-based, Staphylococcus aureus. The note with it: 5 mg/cm^2 coating, 30, 60 and 120 minutes. The procedure: as §2
[9] abbreviates: kills 99.9% of the initial inoculum.

The record followed here is patent US20190015385A1, “VITAMIN E PHOSPHATE OR ACETATE FOR USE IN THE TREATMENT AND PREVENTION OF BIOFILM INFECTIONS” (priority 2016, published 2019).

A value given as a limit tells only on which side of the number the result lay.

Regarding `CC(=O)Oc1c(C)c(C)c2c(c1C)CCC(C)(CCC[C@H](C)CCC[C@H](C)CCCC(C)C)O2` (stereo partly drawn) [Vitamin E acetate, α-tocopherol acetate], the MIC range is >200 mg/mL in experiment [1] (24 hours) and >200 mg/mL in experiment [3] (48 hours, broth with 5% defibrinated sheep blood). In addition, the MBC range in experiment [1] (setting [9]) and in experiment [3] (setting [9]) was >200 mg/mL throughout. For the same compound, the “decrease in adhesion (in words)” value in experiment [2] was “significant decrease”; in experiment [7] it was “No effect”; in experiment [8], “significant decrease”. For the same compound, the “biofilm reduction with respect to the controls (in words)” value in experiment [4] (24 hours) is “not after 24 hours”; in experiment [4] (48 hours) it was “effective after 48 hours”; in experiment [5] (24 hours), “significant”; in experiment [5] (48 hours) it was “significant”; in experiment [6] (24 hours), “significant”; in experiment [6] (48 hours), “significant”.
